{"source": "patent US5374621A", "about": "(Regents of the University of California, priority 1991, dated 1994)", "key": {"substance P": {"test_system": "substance P", "test": "Salivary secretion induced by substance P injections", "assay_type": "in vivo", "conditions": "substance P 40 μg/kg s.c., rat", "from_the_text": "Thus, a chemical (Such as illustrated by CP-96,345) that antagonizes the inflammatory mediator, substance P, is not sufficient to prevent edema after thermal injury."}, "[1]": {"test_system": "heat induced edema in rat paws", "test": "Heat injury to the skin: paw edema after immersion in 58° C. water", "assay_type": "in vivo", "conditions": "for ED50 (nmol/kg), inhibition of heat-induced edema / ED50 (μg/kg), inhibition of heat-induced edema: % increase in paw water content 30 minutes after heat injury, as % of saline control"}, "[2]": {"test_system": "vascular leakage from brain cortex after freeze injury", "test": "Cerebral cortex freeze injury: Monastral blue vascular leakage", "assay_type": "in vivo, rat", "conditions": "4 nmol/kg i.v. 10 minutes before freeze injury", "method": "(§1) Experiments were conducted on 260±6 (S.D.) male Sprague-Dawley rats from Simonsen Laboratories (Gilroy, Calif.). Animals were injected with sodium pentobarbital, 60 mg/kg i.p. Ten to 15 minutes later, after anesthesia was signaled by loss of the righting reflex and motor responses to tail pinch, Monastral blue B (used to estimate leakage of macromolecules from blood vessels), suspended in saline at 30 mg/ml (Sigma Co., St. Louis, Mo.), was injected 60 mg/kg i.v. at a rate of approximately 0.2 ml/100 g body weight/min into a branch of the femoral vein. Procedures for inducing vascular leakage began three minutes after Monastral blue infusion.\nThis model of vasogenic edema in brain tissues was first described by Chan et al. (1983). Anesthetized rats were mounted on a David Kopf stereotaxic instrument and a 2 to 2.5 cm midline incision made in the shaved scalp. After parting the skin and connective tissue to expose the skull, a 60 mm^2 plate, connected to a brass cup filled with dry ice and acetone and maintained at -50° C., was applied to the skull for four minutes. One hour later, the animal was perfused through the aorta with saline, followed by 10% NBF, and then the brain was removed and stored in 10% NBF for at least two days before further analysis. Sections of membranes covering the cortex were also dissected from the underlying tissues and separately examined.\nTo measure the area of dye distribution and the intensity of dye staining on the surfaces of the tissues, we used an image-processing system (JAVA, Jandel Video Analysis System, Corte Madera, Calif.) in which a video image, composed of pixels with different gray intensities, was subjected to numeric analysis. Samples of the abdominal muscle and brain were placed on a non-reflective coated glass board illuminated by six 60 watt fluorescent bulbs placed 1.65 m above the tissues and the images recorded under these constant conditions, without magnification, on video film. The areas of dye distribution were demarcated with a mouse-pointer device and the average intensity in the defined areas was obtained. […]"}, "[3]": {"test_system": "vascular leakage from abdominal muscle after celiotomy", "test": "Skeletal muscle injury (celiotomy): Monastral blue vascular leakage", "assay_type": "in vivo, rat", "conditions": "for Lesion Size (x104): area x intensity; for Area (mm^2) of dye staining: samples 30 minutes after celiotomy", "method": "as §1\nThe abdomen was shaved and a 4 cm scalpel cut was made in the midline. After manually parting the skin, an incision of equal length was made in the rectus abdominus and the skin was then pushed together to cover the wound. Thirty minutes after celiotomy, the rat was euthanized with an i.v. overdose of pentobarbital and the skin and muscle surrounding the site of incision were removed and fixed in 10% neutral-buffered formalin (NBF) for at least 2 days before further analysis.\nTo measure the area of dye distribution and the intensity of dye staining on the surfaces of the tissues, we used an image-processing system (JAVA, Jandel Video Analysis System, Corte Madera, Calif.) in which a video image, composed of pixels with different gray intensities, was subjected to numeric analysis. Samples of the abdominal muscle and brain were placed on a non-reflective coated glass board illuminated by six 60 watt fluorescent bulbs placed 1.65 m above the tissues and the images recorded under these constant conditions, without magnification, on video film. The areas of dye distribution were demarcated with a mouse-pointer device and the average intensity in the defined areas was obtained. To calibrate light intensity on the JAVA system, various concentrations of Monastral blue B (0.0625 to 16 mg/ml) were placed on white filter paper and the intensity scale set from 0 to 255 units. The relationship of light intensity, which is the degree of blueness in arbitrary units, to Monastral blue B concentrations (mg/ml) was: light intensity =124+116 log MB, an equation obtained by linear regression with a correlation coefficient of r= 0.98. The term \"lesion size\", applied to the area of staining multiplied by its light intensity, represents a two-dimensional measurement of vascular leakage. This assessment was considered adequate because the injuries were to the surfaces of the muscle and cortex and the lesions were not more than a few mm deep. To further characterize the sites of dye leakage from blood vessels, samples of muscle and cortex, cut to approximately 500 μm thickness, were mounted in glycerol gelatin for microscopic examination.\nAnimals were randomly assigned to treatments using a paired control design with a minimum of 6 rats per group. Data were expressed as the mean ± S.E.M. and the ED50 and 95% confidence limits were estimated by the method of Litchfield and Wilcoxon (1949). The Student's test was used for comparison of groups."}, "blood pressure": {"test_system": "blood pressure", "test": "Blood pressure (mean arterial pressure) after i.v. injection", "assay_type": "in vivo", "conditions": "10 nmol/kg i.v.; FIG. 4"}, "[4]": {"test_system": "epinephrine-induced pulmonary edema", "test": "Epinephrine-induced pulmonary edema", "assay_type": "in vivo, rat", "conditions": "10 nmol/kg i.v. 10 minutes before epinephrine bitartrate 10 μg/kg i.v.; lungs 30 minutes after Epi; Saline + Epi 6.2 ± 0.3"}}, "data": [{"compound": "COc1ccccc1CN[C@H]1C2CCN(CC2)[C@H]1C(c1ccccc1)c1ccccc1", "note": "[CP-96,345, reference compound]", "values": [{"measurement": "salivary secretion induced by substance P", "setting": "substance P", "value": "prevent salivary secretion"}, {"measurement": "Increase in Water Content of Heated Paw", "setting": "[1]; 4 mg/kg i.v. 10 minutes before 58° C. water for one minute, 30 minutes later, saline 1117 ± 33, not significantly different", "value": "1057 ± 24", "unit": "mg"}]}, {"compound": "Kinetensin", "values": [{"measurement": "ED20, inhibition of heat-induced edema", "setting": "[1]; i.v. 10 minutes before heat, dose range 200-800 nmol/kg", "value": 420, "unit": "nmol/kg"}]}, {"compound": "LANT-6", "values": [{"measurement": "swelling after heat injury", "setting": "[1]; 0.5 mg/kg i.v., control 69±2%, N=6 pairs, P<0.001", "value": "2±1", "unit": "%"}]}, {"compound": "N-acetyl-neurotensin (8-13) [AcNT8-13]", "values": [{"measurement": "Lesion Size (x103)", "setting": "[2]; area x intensity, saline 5.7 ± 0.2", "value": "2.4 ± 0.3 x103"}, {"measurement": "Area (mm^2) of dye staining", "setting": "[2]; brain removed sixty minutes later, saline 38 ± 2", "value": "21 ± 2", "unit": "mm^2"}, {"measurement": "Intensity of dye staining", "setting": "[2]; saline 151 ± 4", "value": "119 ± 4"}, {"measurement": "Lesion Size (x104)", "setting": "[3]; 4 nmol/kg i.v. 5 minutes after celiotomy, saline 10.4 ± 0.5", "value": "5.3 ± 0.4 x104"}, {"measurement": "Intensity of dye staining", "setting": "[3]; 4 nmol/kg i.v. 5 minutes after celiotomy, saline 137 ± 31", "value": "108 ± 5"}, {"measurement": "Area (mm^2) of dye staining", "setting": "[3]; 4 nmol/kg i.v. 5 minutes after celiotomy, saline 758 ± 39", "value": "493 ± 27", "unit": "mm^2"}, {"measurement": "Lesion Size (x104)", "setting": "[3]; 4 nmol/kg i.v. 10 minutes before celiotomy, saline 12.7 ± 0.4", "value": "5.0 ± 0.2 x104"}, {"measurement": "Intensity of dye staining", "setting": "[3]; 4 nmol/kg i.v. 10 minutes before celiotomy, saline 149 ± 2", "value": "126 ± 2"}, {"measurement": "Area (mm^2) of dye staining", "setting": "[3]; 4 nmol/kg i.v. 10 minutes before celiotomy, saline 852 ± 27", "value": "399 ± 18", "unit": "mm^2"}, {"measurement": "hypotensive effect (blood pressure over 30 minutes)", "setting": "blood pressure", "value": "lacked hypotensive effect"}, {"measurement": "ED50 (nmol/kg), inhibition of heat-induced edema", "setting": "[1]; i.v. 10 minutes before heat", "value": 2.1, "unit": "nmol/kg"}, {"measurement": "ED50 (μg/kg), inhibition of heat-induced edema", "setting": "[1]; i.v. 10 minutes before heat", "value": 1.8, "unit": "µg/kg"}, {"measurement": "Edema Index, 1000 (wet wt.-dry wt.)/body wt.", "setting": "[4]", "value": "4.9 ± 0.2"}]}, {"compound": "neuromedin N (IPYIL; Neuromedin N; UniProt P30990 144-148, looked up) [peptide of the neurotensin family]", "values": [{"measurement": "ED50 (nmol/kg), inhibition of heat-induced edema", "setting": "[1]; i.v. 10 minutes before heat", "value": 10.0, "unit": "nmol/kg"}, {"measurement": "ED50 (μg/kg), inhibition of heat-induced edema", "setting": "[1]; i.v. 10 minutes before heat", "value": 7.5, "unit": "µg/kg"}]}, {"compound": "neurotensin (8-13) [NT (8-13)]", "values": [{"measurement": "hypotensive effect (blood pressure over 30 minutes)", "setting": "blood pressure", "value": "lacked hypotensive effect"}, {"measurement": "swelling response (paw volume change)", "setting": "[1]; FIG. 1, different doses before 58° C. water, paw volume up to 30 minutes", "value": "dose-dependent suppression"}, {"measurement": "ED50 (nmol/kg), inhibition of heat-induced edema", "setting": "[1]; i.v. 10 minutes before heat", "value": 1.9, "unit": "nmol/kg"}, {"measurement": "ED50 (μg/kg), inhibition of heat-induced edema", "setting": "[1]; i.v. 10 minutes before heat", "value": 1.6, "unit": "µg/kg"}, {"measurement": "Edema Index, 1000 (wet wt.-dry wt.)/body wt.", "setting": "[4]", "value": "4.7 ± 0.2"}]}, {"compound": "xenopsin", "values": [{"measurement": "ED50 (nmol/kg), inhibition of heat-induced edema", "setting": "[1]; i.v. 10 minutes before heat", "value": 0.9, "unit": "nmol/kg"}, {"measurement": "ED50 (μg/kg), inhibition of heat-induced edema", "setting": "[1]; i.v. 10 minutes before heat", "value": 0.88, "unit": "µg/kg"}]}]}
